Assay results from patent publication US20220372040A1, “METTL3 MODULATORS” (Accent Therapeutics, Inc., priority 2020, published 2022).
Read-outs that look alike come from different tables or passages of the source.

How the values were obtained:
[1] = test system: MOLM-13 cells; experiment: MOLM-13 96 Hour cell proliferation assay (Cell Titer-Glo); assay type: cell-based; settings: Homo sapiens
Description: MOLM-13 96 Hour Cell Proliferation Assay
MOLM-13 (DSMZ) cells were seeded at 600 cells per well in a volume of 44 μL in a Greiner Bio-One CELLSTAR™ 384 Well Polystyrene Cell Culture clear bottom microplate in RPMI 1640 media containing 10% fetal bovine serum using a Multidrop Combi (ThermoFisher Scientific). Cells were incubated overnight at 37° C. in a humidified tissue culture incubator. To prevent evaporation or to reduce edge effect, add 50 μL or more H2O to an empty plate, cover, and place on top of the cell plates. The Mosquito® HTS Liquid Handler was used to make a compound/media intermediate plate by aliquoting 1 μL of compound from the initial compound dilution plate (concentrations ranging from 10.0 mM to 38.0 nM in 100% DMSO) into Bio-One 384-well polypropylene conical bottom microplate containing 49 μL of media containing the appropriate serum (50-fold dilution, 2% DMSO, compound concentrations ranging from 200.0 μM and […]). The Apricot liquid handling system was used to transfer 6.2 μL compounds from the intermediate plate into the seeding plate containing 44 μL cells (8-fold dilution spanning concentrations 25.0 μM to […], 0.25% DMSO final), and placed in a humidified tissue culture incubator at 37° C. After 96 hours, 25 μL of Cell Titer-Glo reagent (Promega) was added to each well using an Integra liquid handling system. The plate was protected from light using TopSeal-A (Black) film over the entire plate, added White Bottom seal film on the bottom of the entire plate for a better reading on the Envision, and placed on an IKA plate shaker for at 300 rpm for 10 minutes at room temperature. The plate was read on an EnVision plate reader (Perkin Elmer) using the Ultra Sensitive Luminescence protocol. Data analysis was performed by normalizing the raw luminescence units to an average of the positive control values for staurosporine (100% cell death) and the negative control values for DMSO (0% cell death). An IC50 was calculated using a 4-parameter logistic nonlinear regression model in GraphPad Prism.

[2] = biological target: METTL3/METTL14 (Homo sapiens, UniProt Q86U44); experiment: METTL3-14 standard enzyme assay (3H-SAM flashplate scintillation); assay type: biochemical; settings: METTL3/METTL14 2.5 nM, RNA 100 nM, 3H-SAM 100 nM, 30 min
How it was run: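 METTL3/METTL14 (2.5 nM final) preincubated 5 min with compound in 20 mM HEPES pH 7.5, 50 mM KCl, 250 μM MgCl2, 1 mM DTT, ambient temperature; started with 100 nM 3′-biotinylated RNA (UCUGGACUAAA) and 100 nM 3H-SAM. After 30 min, quenched with 15 μM cold SAM; methylated RNA captured on streptavidin flashplates and counted by scintillation.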

[3] = biological target: PRMT5-MEP50 (Homo sapiens, UniProt O14744); experiment: PRMT5 assay (3H-SAM flashplate scintillation); assay type: biochemical; settings: PRMT5-MEP50 2.5 nM, histone H4 peptide 100 nM, 3H-SAM 250 nM, 60 min
How it was run: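 PRMT5-MEP50 (2.5 nM final) preincubated 5 min with compound, then reacted 60 min at ambient temperature with 100 nM biotinylated N-acetyl histone H4 peptide and 250 nM 3H-SAM in 20 mM Tris-HCl pH 8.0, 1 mM DTT, 0.01% Tween. Quenched with 15 μM cold SAM; methylated peptide captured on streptavidin flashplates, scintillation counted.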

[4] = biological target: METTL1/WDR4 (Homo sapiens, UniProt Q9UBP6); experiment: METTL1 assay (3H-SAM flashplate scintillation); assay type: biochemical
How it was run: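 Radiometric methyltransfer by METTL1/WDR4 (6.25 nM f.c., 5 min preincubation) at ambient temperature in HEPES pH 7.5, KCl, MgCl2, DTT; started with 25 nM 3′-biotinylated RNA and 60 nM 3H-SAM, run 20 min, quenched with 15 μM cold SAM. Product captured on streptavidin flashplates (2 h, 25° C), counted by scintillation.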

[5] = biological target: T1, METTL16 (Homo sapiens, UniProt Q86W50); experiment: METTL16 assay (3H-SAM flashplate scintillation); assay type: biochemical; settings: METTL16 100 nM, RNA 50 nM, 3H-SAM 200 nM, SAM 800 nM, 20 min
T1 sequence (Q86W50 1-562): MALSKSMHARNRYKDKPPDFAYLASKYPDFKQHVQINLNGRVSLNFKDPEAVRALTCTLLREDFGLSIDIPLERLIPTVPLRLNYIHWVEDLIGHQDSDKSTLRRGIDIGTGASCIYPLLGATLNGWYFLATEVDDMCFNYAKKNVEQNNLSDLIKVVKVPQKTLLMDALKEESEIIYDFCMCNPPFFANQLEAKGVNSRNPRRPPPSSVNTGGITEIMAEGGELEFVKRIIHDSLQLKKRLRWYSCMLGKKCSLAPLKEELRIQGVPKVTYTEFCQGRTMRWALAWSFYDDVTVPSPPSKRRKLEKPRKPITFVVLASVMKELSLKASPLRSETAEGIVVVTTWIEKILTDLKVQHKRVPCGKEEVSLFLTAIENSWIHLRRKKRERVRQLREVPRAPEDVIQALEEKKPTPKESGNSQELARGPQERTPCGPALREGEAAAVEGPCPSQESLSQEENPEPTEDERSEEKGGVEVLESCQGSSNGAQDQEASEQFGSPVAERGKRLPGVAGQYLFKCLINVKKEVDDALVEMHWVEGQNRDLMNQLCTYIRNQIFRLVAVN
Description: Assays were performed in a 25 μl-volume in 384-well V-bottom polypropylene microplates (Greiner Bio-One, cat. No. 781280) at ambient temperature. Optimized 1× assay buffer was 20 mM HEPES pH 7.5, 50 mM KCl, 1 mM DTT, 0.01% Tween, 0.01% BSG, 0.004 U/μl RNAseOUT (cat. No. 10777019, ThermoFisher Scientific, Waltham, Mass.). For compound screening METTL16 (final concentration, f.c.=100 nM) was added using a Multidrop Combi (ThermoFisher Scientific, Waltham, Mass.) and preincubated for 5 min. Reactions were started by adding 3′ biotinylated RNA ([…]-biotin) (f.c.=50 nM), 3H-SAM (f.c.=200 nM) and non-radiolabeled SAM (f.c.=800 nM) substrates. Reactions proceeded for 20 minutes and were quenched with excess non-radioactive SAM (f.c.=100 μM). The reactions were then transferred to streptavidin-coated flashplates and incubated for 2 hours at 25° C. Following two washing cycles with 0.1% Tween-20, the plates were sealed and read on a TopCount (PerkinElmer, Waltham, Mass.) plate-based scintillation counter. For determination of kinetic parameters, reaction times were optimized so that measurements were taken during the initial velocity phase of the reaction.

Chain of METTL3/METTL14 (Q86U44 whole entry, species assumed): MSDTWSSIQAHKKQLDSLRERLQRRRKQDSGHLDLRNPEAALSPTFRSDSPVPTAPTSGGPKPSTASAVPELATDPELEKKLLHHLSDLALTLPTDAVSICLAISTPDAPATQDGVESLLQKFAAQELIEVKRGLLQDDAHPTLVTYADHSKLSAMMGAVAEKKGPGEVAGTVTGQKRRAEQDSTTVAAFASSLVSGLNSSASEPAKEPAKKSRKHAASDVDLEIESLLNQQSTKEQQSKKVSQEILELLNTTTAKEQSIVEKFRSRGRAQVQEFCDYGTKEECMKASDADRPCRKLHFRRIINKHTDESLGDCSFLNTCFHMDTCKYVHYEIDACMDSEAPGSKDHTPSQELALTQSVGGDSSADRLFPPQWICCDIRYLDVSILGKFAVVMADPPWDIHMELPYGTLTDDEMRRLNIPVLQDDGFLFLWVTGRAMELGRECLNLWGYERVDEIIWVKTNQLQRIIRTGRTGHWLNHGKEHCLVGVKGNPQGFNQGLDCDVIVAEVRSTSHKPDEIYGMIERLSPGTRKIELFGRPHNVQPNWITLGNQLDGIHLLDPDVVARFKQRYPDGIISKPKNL
Chain of METTL3/METTL14 (Q9HCE5 whole entry partner, species assumed): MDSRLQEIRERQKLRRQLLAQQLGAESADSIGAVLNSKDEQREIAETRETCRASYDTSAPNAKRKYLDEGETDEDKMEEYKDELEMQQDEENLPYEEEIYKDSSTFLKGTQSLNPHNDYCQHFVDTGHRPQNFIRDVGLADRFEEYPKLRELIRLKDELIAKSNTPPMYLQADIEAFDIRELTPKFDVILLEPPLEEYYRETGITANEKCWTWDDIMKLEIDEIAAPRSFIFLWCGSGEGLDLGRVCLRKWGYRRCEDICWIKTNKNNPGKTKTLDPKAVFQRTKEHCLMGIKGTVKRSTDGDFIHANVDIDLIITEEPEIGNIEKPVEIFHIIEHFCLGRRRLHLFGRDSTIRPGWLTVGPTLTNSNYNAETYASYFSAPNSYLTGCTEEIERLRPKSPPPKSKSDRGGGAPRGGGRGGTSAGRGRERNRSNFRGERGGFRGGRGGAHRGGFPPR
Chain of PRMT5-MEP50 (O14744 whole entry): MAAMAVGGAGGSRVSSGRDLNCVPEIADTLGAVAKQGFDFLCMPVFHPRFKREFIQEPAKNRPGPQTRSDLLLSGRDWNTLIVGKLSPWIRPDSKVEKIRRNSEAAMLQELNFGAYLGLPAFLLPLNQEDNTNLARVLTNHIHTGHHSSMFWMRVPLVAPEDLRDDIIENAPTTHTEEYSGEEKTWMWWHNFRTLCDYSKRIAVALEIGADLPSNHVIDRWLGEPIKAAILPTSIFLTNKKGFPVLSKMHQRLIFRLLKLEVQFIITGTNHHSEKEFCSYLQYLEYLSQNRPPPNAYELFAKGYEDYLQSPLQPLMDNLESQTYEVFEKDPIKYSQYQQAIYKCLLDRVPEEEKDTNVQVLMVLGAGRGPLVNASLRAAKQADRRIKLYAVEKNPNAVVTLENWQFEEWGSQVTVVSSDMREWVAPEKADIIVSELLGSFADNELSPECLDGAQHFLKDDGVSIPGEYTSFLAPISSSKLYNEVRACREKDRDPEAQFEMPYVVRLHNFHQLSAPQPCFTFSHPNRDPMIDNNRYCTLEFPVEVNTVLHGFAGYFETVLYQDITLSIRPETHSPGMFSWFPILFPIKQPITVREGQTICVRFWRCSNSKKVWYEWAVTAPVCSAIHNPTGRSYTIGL
Chain of PRMT5-MEP50 (Q9BQA1 whole entry partner): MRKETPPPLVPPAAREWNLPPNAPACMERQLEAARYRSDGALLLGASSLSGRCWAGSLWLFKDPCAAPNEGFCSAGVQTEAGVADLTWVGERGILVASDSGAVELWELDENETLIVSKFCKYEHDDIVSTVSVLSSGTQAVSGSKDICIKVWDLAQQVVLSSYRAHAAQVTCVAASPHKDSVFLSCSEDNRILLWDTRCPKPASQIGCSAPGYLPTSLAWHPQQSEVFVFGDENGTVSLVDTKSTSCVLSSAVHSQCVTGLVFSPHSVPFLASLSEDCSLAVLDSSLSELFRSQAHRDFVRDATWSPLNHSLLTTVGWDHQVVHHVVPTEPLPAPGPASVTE
Chain of METTL1/WDR4 (Q9UBP6 whole entry, species assumed): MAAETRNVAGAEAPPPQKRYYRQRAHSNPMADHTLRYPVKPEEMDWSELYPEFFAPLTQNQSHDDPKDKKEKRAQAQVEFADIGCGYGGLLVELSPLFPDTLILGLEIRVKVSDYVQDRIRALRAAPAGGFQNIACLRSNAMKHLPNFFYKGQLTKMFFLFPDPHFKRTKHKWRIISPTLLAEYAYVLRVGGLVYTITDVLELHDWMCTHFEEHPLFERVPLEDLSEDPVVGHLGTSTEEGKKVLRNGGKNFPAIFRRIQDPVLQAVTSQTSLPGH
Chain of METTL1/WDR4 (P57081 whole entry partner, species assumed): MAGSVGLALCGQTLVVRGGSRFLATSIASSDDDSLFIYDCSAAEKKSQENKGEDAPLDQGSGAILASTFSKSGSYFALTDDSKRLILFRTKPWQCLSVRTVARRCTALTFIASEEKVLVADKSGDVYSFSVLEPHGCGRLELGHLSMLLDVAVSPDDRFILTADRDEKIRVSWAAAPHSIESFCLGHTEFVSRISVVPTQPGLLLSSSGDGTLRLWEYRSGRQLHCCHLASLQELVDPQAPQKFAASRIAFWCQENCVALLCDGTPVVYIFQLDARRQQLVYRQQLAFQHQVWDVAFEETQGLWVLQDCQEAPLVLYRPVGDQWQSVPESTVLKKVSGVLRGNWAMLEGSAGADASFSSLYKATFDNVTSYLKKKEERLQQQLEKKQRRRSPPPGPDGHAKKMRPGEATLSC

Row | Structure (SMILES) | IC50 [1] [nM] | IC50 [2] [nM] | IC50 [3] [nM] | IC50 [5] [nM] | IC50 [4] [nM] | IC50 ([4]; METTL1/WDR4 6.25 nM, RNA 25 nM, 3H-SAM 60 nM, 20 min, read-out: METTL1 IC50) [nM]
1 | Cn1ccc(-c2cn(-c3cncc(COc4ccc5ccc(N6CC(O)C6)nc5c4)c3)c3ncnc(N)c23)n1 [Compound I-193] | 1000 to 10000 | < 10 | > 1000 | – | – | –
2 | CCc1cc(NCCCN(C)C)c2ccc(OCc3cncc(-n4cc(-c5ccn(C)n5)c5c(N)ncnc54)c3)cc2n1 [Compound I-170] | < 1000 | < 10 | > 1000 | – | – | –
3 | CCc1cc(N2CCCC2)c2ccc(OCc3cncc(-n4ccc5c(N)ncnc54)c3)cc2n1 [Compound I-109] | < 1000 | < 10 | > 1000 | – | – | –
4 | Cn1ccc(-c2cn(-c3cncc(COc4ccc5ccc(N6CC(=O)C6)nc5c4)c3)c3ncnc(N)c23)n1 [Compound I-217] | 1000 to 10000 | < 10 | > 1000 | – | – | –
5 | CCc1cc(N(C)C)c2ccc(OCc3cncc(-n4ccc5c(N)ncnc54)c3)cc2n1 [Compound I-232] | < 1000 | 10 to 100 | > 1000 | – | – | –
6 | CCc1cc(N2CCN(C)CC2)c2ccc(OCc3cncc(-n4ccc5c(N)ncnc54)c3)cc2n1 [Compound I-107] | < 1000 | < 10 | > 1000 | – | – | –
7 | CCc1cc(N2CCOCC2)c2ncc(OCc3cncc(-n4cc(-c5ccn(C)n5)c5c(N)ncnc54)c3)cc2n1 [Compound I-150] | < 1000 | < 10 | – | – | – | –
8 | CNc1ccc2ccc(OCc3cncc(-n4cc(C5CCCO5)c5c(N)ncnc54)c3)cc2n1 (stereo not drawn) [Compound I-97] | < 1000 | < 10 | > 1000 | – | > 1000 | –
9 | Cc1nc(-c2cn(-c3cncc(COc4ccc5ccc(N6CCC6)nc5c4)c3)c3ncnc(N)c23)co1 [Compound I-239] | 1000 to 10000 | < 10 | > 1000 | – | – | –
10 | CC(C)c1cc(N2CCC2)c2ccc(OCc3cncc(-n4ccc5c(N)ncnc54)c3)cc2n1 [Compound I-99] | < 1000 | < 10 | > 1000 | – | – | > 1000
11 | CC(=O)c1cn(-c2cncc(COc3ccc4ccc(N5CCC5)nc4c3)c2)c2ncnc(N)c12 [Compound I-238] | ≥ 10000 | < 10 | > 1000 | – | – | –
12 | CCc1cc(NCCOC)c2ncc(CCc3cncc(-n4cc(-c5ccn(C)n5)c5c(N)ncnc54)c3)cc2n1 [Compound I-132] | < 1000 | < 10 | – | – | – | –
13 | CCc1cc(N(C)C2CC2)c2ccc(OCc3cncc(-n4cc([C@@H]5CCCO5)c5c(N)ncnc54)c3)cc2n1 [Compound I-167] | < 1000 | < 10 | – | – | – | –
14 | CCc1cc(NCCOC)c2ncc(OCc3cncc(-n4cc([C@@H]5CCCO5)c5c(N)ncnc54)c3)cc2n1 [Compound I-152] | < 1000 | < 10 | – | – | – | –
15 | CCc1cc(N2CCNCC2)c2ccc(OCc3cncc(-n4cc([C@@H]5CCCO5)c5c(N)ncnc54)c3)cc2n1 [Compound I-149] | 1000 to 10000 | < 10 | – | – | – | –
16 | CCc1cc(NCCOC)c2ccc(OCc3cncc(-n4cc(COC)c5c(N)ncnc54)c3)cc2n1 [Compound I-231] | < 1000 | < 10 | > 1000 | – | – | –
17 | Cn1ccc(-c2cn(-c3cncc(COc4ccc5ccc(N6CC(F)C6)nc5c4)c3)c3ncnc(N)c23)n1 [Compound I-192] | < 1000 | < 10 | > 1000 | – | – | –
18 | CCNc1ccc2ccc(OCc3cncc(-n4cc([C@H]5CCCO5)c5c(N)ncnc54)c3)cc2n1 [Compound I-134] | < 1000 | < 10 | – | – | – | –

Second part, led by results:

Row | IC50 [1] [nM] | IC50 [2] [nM] | IC50 [3] [nM] | IC50 [5] [nM] | Structure (SMILES) | IC50 [4] [nM] | IC50 ([4]; METTL1/WDR4 6.25 nM, RNA 25 nM, 3H-SAM 60 nM, 20 min, read-out: METTL1 IC50) [nM]
19 | < 1000 | < 10 | > 1000 | – | Cn1ccc(-c2cn(-c3cncc(COc4ccc5ccc(N6CC(N)C6)nc5c4)c3)c3ncnc(N)c23)n1 [Compound I-213] | – | –
20 | < 1000 | < 10 | – | – | CCc1cc(NC)c2ccc(OCc3cncc(-n4cc(-c5ccn(CCOC)n5)c5c(N)ncnc54)c3)cc2n1 [Compound I-154] | – | –
21 | 1000 to 10000 | < 10 | – | – | CCNc1ccc2ccc(CCc3cncc(-n4cc([C@H]5CCCO5)c5c(N)ncnc54)c3)cc2n1 [Compound I-156] | – | –
22 | ≥ 10000 | 100 to 1000 | > 1000 | > 1000 | Cc1cc(N)c2ccc(OCc3cncc(-n4ccc5c(N)ncnc54)c3)cc2n1 [Compound I-48] | – | –
23 | 1000 to 10000 | 10 to 100 | > 1000 | – | CS(=O)(=O)c1cn(-c2cncc(COc3ccc4ccc(N5CCC5)nc4c3)c2)c2ncnc(N)c12 [Compound I-185] | – | –
24 | < 1000 | < 10 | – | – | CCc1cc(NCCOC)c2ccc(OCc3cncc(-n4cc([C@@H]5CCCO5)c5c(N)ncnc54)c3)cc2n1 [Compound I-141] | – | –
25 | 1000 to 10000 | 100 to 1000 | > 1000 | > 1000 | Nc1ncnc2c1c(Cl)cn2-c1cncc(COc2ccc3ccc(NCC4CC4)nc3c2)c1 [Compound I-55] | – | –
26 | < 1000 | < 10 | – | – | CCc1cc(NCCOC)c2c(F)cc(OCc3cncc(-n4cc(-c5ccn(C)n5)c5c(N)ncnc54)c3)cc2n1 [Compound I-229] | – | –
27 | 1000 to 10000 | < 10 | > 1000 | – | Cn1ccc(-c2cn(-c3cncc(COc4ccc5ccc(N6CC(F)(F)C6)nc5c4)c3)c3ncnc(N)c23)n1 [Compound I-212] | – | –
28 | < 1000 | < 10 | > 1000 | – | CN(CCO)c1ccc2ccc(OCc3cncc(-n4cc(-c5ccn(C)n5)c5c(N)ncnc54)c3)cc2n1 [Compound I-169] | – | –
